{"source": "patent US11813277B2", "about": "“Methods and agents for modulating inflammation” (The Regents of the University of California, priority 2018, dated 2023)", "key": {"LCFA oxidation in BMDMs": {"tested_on": "LCFA oxidation in BMDMs", "experiment": "9,10-3H-palmitate oxidation (3H2O release) in BMDMs", "assay_type": "cell-based, mouse", "conditions": "3 μM etomoxir", "procedure": "BMDMs at day 6 of differentiation were seeded at 3×10^5 cells/well in 12 well plates in BMDM media. The next day, cells were treated in DMEM containing 25 mM glucose supplemented with 5% FBS, 2 mM L-Glutamax, 100 units/mL, 100 μg/mL penicillin/streptomycin, 1 mM of sodium pyruvate, 1 mM carnitine, and 5% v/v conditioned media containing macrophage colony stimulating factor (M-CSF) under one of 5 conditions: control, 20 ng/mL of IL-4±3 μM or 200 μM of etomoxir, or 200 nM rotenone, or 200 nM antimycin A for 24 hr. Fatty acid oxidation was measured 24 hours later as previously described (Rognstad, R. (1991) Estimation of peroxisomal and mitochondrial fatty acid oxidation in rat hepatocytes using tritiated substrates. Biochem J 279:147-150, 1991; Cha, B. S., Ciaraldi, T. P., Park, K. S., Carter, L., Mudaliar, S. R., and Henry R R. (2005) Impaired fatty acid metabolism in type 2 diabetic skeletal muscle cells is reversed by PPARgamma agonists. Am J Physiol Endocrinol Metab. 289, E151-9) following a fluid change to DMEM with components as described above except 10 mM glucose and 0.2 μCi (final concentration of 5 μM) BSA-conjugated [9,10-3H]palmitic acid. No additional IL-4 was added at the time of this fluid change, but etomoxir, rotenone and antimycin A were added, and the plates were placed in a […] incubator at 37° C. for 3 hr. After incubation, a 100 μL aliquot of the culture medium was passed over an ion-exchange resin, and the column was washed twice with 0.75 ml of water. Free fatty acids were retained by the resin, whereas the tritium hydrolyzed from radiolabeled palmitate catabolism was released as labeled water, which passes freely through the resin, and is subsequently counted for radioactivity. All data are corrected for protein content in each well. There were 3 technical replicates for each condition, and 4 biological replicates arising from 4 separate animals."}, "A549 cells": {"tested_on": "A549 cells", "experiment": "Palmitate-driven respiration in intact A549 cells (Seahorse)", "assay_type": "cell-based", "conditions": "intact A549, albumin-buffered palmitate", "procedure": "All respirometry studies were conducted in either a Seahorse XF96 or XFe96 Analyzer. All experiments were conducted at 37° C., and at pH 7.4 (intact cells) or 7.2 (permeabilized cells and isolated mitochondria). Calculation of respiratory parameters was made according to standard protocols (Divakaruni, A. S., Paradyse, A., Ferrick, D. A., Murphy, A. N., and Jastroch, M. (2014a) Analysis and interpretation of microplate-based oxygen consumption and pH data. Meth. Enzym 547, 509-54), and all rates were corrected for non-mitochondrial respiration/background signal by subtracting the oxygen consumption rate insensitive to rotenone plus antimycin A.\nPalmitate oxidation in intact cells (FIG. 1A, FIG. 1B) was assessed by measuring palmitate-driven respiration that was sensitive to low concentrations of etomoxir (Rogers, G. W., Nadanaciva, S., Swiss, R., Divakaruni, A. S., and Will, Y. (2014) Assessment of fatty acid beta oxidation in cells and isolated mitochondria. Curr. Protoc. Toxicol. 60, 25.3, 1-19). […] Respiration was measured under basal conditions as well as after injection of 2 μM oligomycin, two sequential additions of 1 μM FCCP, followed by 0.2 μM rotenone with 1 μM antimycin A. Etomoxir was added to the assay medium 30 min. prior to measurements of basal respiratory rates."}, "[1]": {"tested_on": "permeabilized HepG2 or A549 cells", "experiment": "ADP- vs FCCP-stimulated respiration in permeabilized cells, etomoxir added directly", "assay_type": "cell-based", "conditions": "high concentrations of etomoxir"}, "CPT-1a and CPT-1b": {"tested_on": "CPT-1a and CPT-1b", "conditions": "upon enzymatic conversion to etomoxiryl CoA; cited from earlier work"}}}
{"smiles": "CCOC(=O)[C@@]1(CCCCCCOc2ccc(Cl)cc2)CO1", "note": "[etomoxir]", "values": [{"measurement": "3H2O release from tritiated palmitate", "setting": "LCFA oxidation in BMDMs", "result": "effectively suppress"}, {"measurement": "half-maximal inhibitory concentration (EC50) for uncoupler-stimulated respiration", "setting": "A549 cells", "result": "sub-micromolar"}, {"measurement": "respiration driven by ADP versus FCCP", "setting": "[1]", "result": "greater inhibitory effect on respiration driven by ADP versus FCCP"}, {"measurement": "IC50", "setting": "CPT-1a and CPT-1b", "result": "10 to 700", "unit": "nM"}]}
